{"source": "patent US20230181673A1", "about": "“TRI-PEPTIDES AND TREATMENT OF METABOLIC, CARDIOVASCULAR AND INFLAMMATORY DISORDERS” (Diapin Therapeutics, LLC, priority 2018, published 2023)", "key": {"[1]": {"system": "WD-induced hepatic steatosis", "assay": "Liver H&E/ORO histology and hepatic lipid (TG, TC) quantification in WD-fed apoE−/− mice", "type": "in vivo", "conditions": "for Hepatic steatosis by H&E staining / HS by histology and lipid quantification: apoE−/− mice on WD; for Hepatic steatosis by H&E staining: 12 weeks; for Hepatic TC, decreased by / Hepatic TG, decreased by: extracted hepatic lipids, endpoint, vs WD+H2O; for HS by histology and lipid quantification: endpoint (FIG. 16A-C)", "description": "(§1) Eight-week-old male apolipoprotein E-deficient (apoE−/−) mice (B6.129P2-Apoetm1Unc/J, Stock No.: 002052) were obtained from Jackson Laboratories. Mice were fed Western diet (WD, 42% of calories from fat and 0.2% cholesterol by weight, Envigo TD.88137). After one week of WD feeding, blood was carefully collected from the facial vein to determine baseline plasma levels of total cholesterol (TC). […] All mice were maintained on a 12-hour light/dark cycle and had ad libitum access to food and water. Body weight and food intake were measured every one and three weeks, respectively\nHistology processing was performed by the In Vivo Animal Core (IVAC) Histology Laboratory within the Unit for Laboratory Animal Medicine (ULAM) of the University of Michigan. Formalin-fixed tissues were processed through graded alcohols and cleared with xylene followed by infiltration with molten paraffin using an automated VIP5 or VIP6 tissue processor (TissueTek, Sakura-Americas). Following paraffin embedding using a Histostar Embedding Station (ThermoFisher Scientific), tissues were sectioned on a M 355S rotary microtome (ThermoFisher Scientific) at 4 μm thickness and mounted on glass slides. Following deparaffinization and hydration with xylene and graded alcohols, slides were stained for hematoxylin and eosin (H&E) using Harris hematoxylin (ThermoFisher Scientific, Cat #842), differentiated with Clarifier (ThermoFisher Scientific, Cat #7401), blued with bluing reagent (ThermoFisher Scientific, Cat #7301), stained with eosin Y, alcoholic (ThermoFisher Scientific, Cat #832), then dehydrated and cleared through graded alcohols and xylene and coverslipped with Micromount (Leica cat #3801731) using a Leica CV5030 automatic coverslipper. Immunohistochemical staining was performed on an IntelliPATH FLX automated immunohistochemical stainer (Biocare Medical, Cat #IPS0001US) and included blocking for endogenous peroxidases and non-specific binding, detection using a horseradish peroxidase biotin-free polymer based commercial detection system, disclosure with diaminobenzidine chromogen, and nuclear counterstaining with hematoxylin. Specific to F4/80, (Bio-Rad ABD Serotec, Cat #MCA497), the rat monoclonal primary antibody (clone CI:A3-1) was diluted to 1:400 in DaVinci Diluent (Biocare Medical, Cat #PD900) and incubated for 60 min followed by detection using Rat-on-Mouse HRP-Polymer, (Biocare Medical, Cat #RT517) 2-step probe-polymer incubation for 10 and 30 min respectively.\nLivers were rapidly removed from the euthanized mice and kept at −80° C. Frozen liver samples (approximately 100 mg) were homogenized in PBS and centrifuged (14,000 RPM, 20 min). The supernatants were collected and analyzed for protein content by the Bio-Rad Bradford assay. To assess liver lipid composition, lipids were extracted from the supernatants using hexane ([…], 32293, Sigma-Aldrich) and isopropanol (≥99.5%, A426-4, Fisher Scientific) at a 3:2 ratio (v:v), and the hexane phase was left for evaporation for 48 h. The amount of liver TG or TC was determined spectrophotometrically using commercially available kits (Wako Chemicals). Data were normalized to protein levels and presented as μg TG or TC/mg protein.\nLivers were rapidly removed from the euthanized mice, snap-frozen with liquid nitrogen, and kept at −80° C. Frozen liver samples (100 mg) were homogenized in PBS and centrifuged (14,000 RPM, 20 min). The supernatants were collected and analyzed for protein content using Bio-Rad Bradford assay. To assess liver lipid composition, lipids were extracted from the supernatants using hexane (≥99%, Sigma-Aldrich 32293) and isopropanol (≥99.5%, Fisher Scientific A428-4) at a 3:2 ratio (v:v), and the hexane phase was left for evaporation for 48 h. […] Liver diacylglycerols (DAG) were determined using ELISA Kit (Aviva Systems Biology, OKEH02607), according to the manufacturer's instructions. Hepatic TG, TC and DAG data were normalized to protein levels."}, "[2]": {"system": "adipose tissue gene expression", "assay": "qPCR of inflammatory cytokines in epididymal and subcutaneous adipose tissue of WD-fed apoE−/− mice", "type": "in vivo", "conditions": "endpoint", "description": "as §1\nTotal RNA from liver or adipose tissue samples was extracted using QIAGEN's RNeasy kits (QIAGEN). RNA was reverse-transcribed into cDNA with SuperScript III and random primers (Invitrogen). Specific transcript levels were assessed by a real-time PCR system (Bio-Rad) using IQ SYBR Green Supermix (Bio-Rad) and the ΔΔCt threshold cycle method of normalization. Gene expression levels were normalized to glyceraldehyde 3-phosphate dehydrogenase (GAPDH). Primer pairs used for qPCR were obtained from Integrated DNA Technologies and are listed below: […]"}, "[3]": {"system": "plasma glucose", "conditions": "humans, glycine ingested together with glucose; cited from earlier work"}, "[4]": {"system": "circulating TG", "conditions": "apoE−/− mice, chronic glycine supplementation 1 mg/g/day; cited from earlier work"}, "[5]": {"conditions": "obese C57BL/6 mice, chronic glycine supplementation 1 mg/g/day; cited from earlier work"}, "[6]": {"system": "hemoglobin-A1c and plasma TNFR1", "conditions": "T2D patients, 5 g/day for 3 months; cited from earlier work"}, "[7]": {"conditions": "KK-Ay mice, dietary glycine; cited from earlier work"}, "[8]": {"conditions": "sucrose-fed rats; cited from earlier work"}, "[9]": {"system": "blood glucose", "assay": "OGTT in C57BL/6J mice given glucose with glycine-based compounds", "type": "in vivo", "procedure": "OGTT were performed in C57BL/6J mice after 12 h fasting (n=6-8).\nOGTT were performed after 12 h fasting. […] Blood glucose concentrations were measured using a blood glucometer and test strips (Contour Next)."}, "[10]": {"conditions": "NASH-diet", "procedure": "Body composition was assessed using nuclear magnetic resonance (NMR)-based analyzer (Minispec LF90II; Bruker Optics) at the U-M Animal Phenotyping Core. Oxygen consumption (VO2), carbon dioxide production (VCO2) and motor activity were measured using CLAMS (Columbus Instruments). Respiratory exchange ratio (RER) Is VCO2/VO2.\nAll measurements were performed by the University of Michigan Animal Phenotyping Core. Body fat, lean body mass, and free fluids were measured using a nuclear magnetic resonance (NMR)-based analyzer (Minispec LF90II; Bruker Optics). The analyzer is daily checked using a reference sample as recommended by the manufacture. The mice were placed individually into the measuring tube with minimum restrain. Oxygen consumption (VO2), carbon dioxide production (VCO2) and motor activity were measured using CLAMS (Columbus Instruments), an integrated open-circuit calorimeter equipped with an optical beam activity monitoring device. Mice were weighed before the measurements and individually placed into the sealed chambers (7.9″×4″×5″) with free access to food and water. The study was carried out in an experimentation room set at 20-23° C. with 12-12 h dark-light cycles (6:00 PM-6:00 AM). Measurements were carried out continuously for 48 h. During this time, animals were provided with food and water through the feeding and drinking devices located inside the chamber. VO2 and VCO2 in each chamber were sampled sequentially for 5 s in 10 min intervals and the motor activity was recorded every second in X and Z dimensions. The air flow rate through the chambers was adjusted to keep the oxygen differential around 0.3% at resting conditions. Respiratory exchange ratio (RER) was calculated as VCO2/VO2. Total energy expenditure, glucose oxidation and fat oxidation were calculated based on the values of VO2, VCO2, and the protein breakdown.\n(§2) Mice fed CD and administered H2O served as control."}, "[11]": {"system": "SMAD2", "conditions": "NASH-diet, liver", "procedure": "Liver samples were lysed in radioimmunoprecipitation assay lysis buffer (RIPA buffer, Thermo Scientific) supplemented with a protease/phosphatase inhibitor cocktail (Roche Applied Science). Proteins were resolved in 10% sodium dodecyl sulfate polyacrylamide gel electrophoresis (SDS-PAGE) and transferred to nitrocellulose membranes (Bio-Rad). The membranes were blocked for 1 h at room temperature in tris-buffered saline-Tween 20 (TBST) containing 5% fat-free milk and incubated with primary antibody at 4° C. overnight. The following primary antibodies were used: AGXT1 (Santa Cruz Biotechnology sa-517388, 1:500), HADHA (Proteintech 10758-1-AP, 1:1000), ACAA2 (ABcional A15778, 1:500), phospho-SMAD2 (Ser485/487, Cell Signaling, #3108S; 1:1000), SMAD2 (Cell Signaling Technology, #5339S; 1:1000), GAPDH (Santa Cruz Biotechnology so-365062; 1:2000), or β-Actin (Cell Signaling Technology #3700). The membranes were washed with TBST before incubated with IRDye-conjugated secondary antibodies (LI-COR Biosciences, 1:10000) at room temperature for 1 h. After TBST washing, bands were visualized and quantified using an Odyssey Infrared Imaging System (LI-COR Biosciences, version 2.1).\nas §2"}, "[12]": {"system": "gut microbiota", "conditions": "mice with established NASH", "procedure": "Total genomic DNA of the gut microbiota was extracted from fecal samples using the QIAamp DNA Stool Mini Kit (51540, Qiagen) according to the manufacturer's instructions. DNA was prepared for community analysis as previously described.17 Briefly, barcoded dual-index primers specific to the V4 region of the 16S rRNA gene were used to amplify the DNA.18 PCR reactions were composed of 5 μL of 4 μM equimolar primer set, 0.15 μL of AccuPrime Taq DNA High Fidelity Polymerase, 2 μL of 10×AccuPrime PCR Buffer II (Thermo Fisher Scientific 12346094), 11.85 μL of PCR-grade water, and 1 μL of DNA template. […] The normalized reactions were pooled and quantified using the Kapa Biosystems Library qPCR MasterMix (ROX Low) Quantification kit for Illumina platforms (KK4873). […]\nDNA sequencing data was processed using Mothur according to SOP and focused primarily on α- and β-diversity based analyses. […] Constrained ordination RDA (redundancy analysis) was calculated, and the significance of environmental variables was checked by forward selection analysis. […] The principal component analysis (PCA) was plotted accordingly using Phyloseq package in R. The correlations between changes in the altered bacterial genera and NAFLD-related parameters in the liver or plasma were calculated using nonparametric Spearman's test."}, "[13]": {"system": "blood glucose", "conditions": "previous studies from the applicant's lab; cited from earlier work"}, "[14]": {"conditions": "0.5 mg/g/day DT-109, compared to the H2O controls"}}, "note": "Non-standard residues stand in square brackets, D forms with d. No end group written: not given here.", "data": [{"compound": "Gly-Gly-[dL] [DT-110]", "values": [{"measurement": "Hepatic steatosis by H&E staining", "setting": "[1]", "value": "abolished"}, {"measurement": "Hepatic TC, decreased by", "setting": "[1]", "value": 63, "unit": "%"}, {"measurement": "Hepatic TG, decreased by", "setting": "[1]", "value": 68, "unit": "%"}, {"measurement": "MCP1 expression in EAT and SAT", "setting": "[2]", "value": "significantly suppressed"}, {"measurement": "TNFα expression in EAT", "setting": "[2]", "value": "most significant effects"}]}, {"compound": "CC(C)C[C@H](N)C(=O)O", "note": "[leucine]", "values": [{"measurement": "Hepatic steatosis by H&E staining", "setting": "[1]", "value": "marked microvesicular and macrovesicular steatosis"}, {"measurement": "Hepatic TC, decreased by", "setting": "[1]", "value": "no significant effects"}, {"measurement": "Hepatic TG, decreased by", "setting": "[1]", "value": "no significant effects"}]}, {"compound": "NCC(=O)O", "note": "[glycine, reference compound]", "values": [{"measurement": "Hepatic steatosis by H&E staining", "setting": "[1]", "value": "abolished"}, {"measurement": "HS by histology and lipid quantification", "setting": "[1]", "value": "reduced HS"}, {"measurement": "Hepatic TC, decreased by", "setting": "[1]", "value": 76, "unit": "%"}, {"measurement": "Hepatic TG, decreased by", "setting": "[1]", "value": 74, "unit": "%"}, {"measurement": "MCP1 expression in EAT and SAT", "setting": "[2]", "value": "significantly suppressed"}, {"measurement": "Attenuation of the increase in plasma glucose", "setting": "[3]", "value": "> 50", "unit": "%"}, {"measurement": "Circulating TG", "setting": "[4]", "value": "reduce circulating TG"}, {"measurement": "Glucose tolerance and fat loss", "setting": "[5]", "value": "restore glucose tolerance and accelerate fat loss"}, {"measurement": "Hemoglobin-A1c and plasma TNFR1", "setting": "[6]", "value": "reduced hemoglobin-A1c and plasma TNFR1"}, {"measurement": "Glucose tolerance, circulating TG, ALT, HS and inflammatory infiltration", "setting": "[7]", "value": "improved glucose tolerance, lowered circulating TG and alanine-aminotransferase (ALT), while attenuating HS and inflammatory infiltration"}, {"measurement": "Intra-abdominal fat, plasma TG and FAO markers in hepatic mitochondria", "setting": "[8]", "value": "reduced intra-abdominal fat, plasma TG and increased FAO markers in hepatic mitochondria"}]}, {"compound": "Gly-Gly-Leu [DT-109]", "values": [{"measurement": "Hepatic steatosis by H&E staining", "setting": "[1]", "value": "abolished"}, {"measurement": "HS by histology and lipid quantification", "setting": "[1]", "value": "reduced HS"}, {"measurement": "Hepatic TC, decreased by", "setting": "[1]", "value": 71, "unit": "%"}, {"measurement": "Hepatic TG, decreased by", "setting": "[1]", "value": 73, "unit": "%"}, {"measurement": "MCP1 expression in EAT and SAT", "setting": "[2]", "value": "significantly suppressed"}, {"measurement": "Glucose-lowering effect in OGTT compared with glycine", "setting": "[9]; 12 h fasting, glucose 2 mg/g with 0.5 mg/g compound, oral", "value": "lowered glucose more efficiently than glycine"}, {"measurement": "Glucose-lowering effect in OGTT compared with equivalent levels of free leucine or glycine", "setting": "[9]; DT-109 0.5 mg/g vs leucine 0.17 or glycine 0.33 mg/g", "value": "particularly when compared to equivalent levels of its individual AA"}, {"measurement": "Body fat", "setting": "[10]; [14]", "value": "reduced body fat"}, {"measurement": "Lean mass", "setting": "[10]; [14]", "value": "preserved lean mass"}, {"measurement": "Respiratory exchange ratio (RER)", "setting": "[10]; CLAMS weeks 22-23, DT-109 at 0.5 mg/g/day", "value": "no significant differences"}, {"measurement": "SMAD2 Ser465/467 phosphorylation", "setting": "[11]", "value": "reduced SMAD2 Ser465/467 phosphorylation"}, {"measurement": "Bacterial genus Alistipes in gut microbiota", "setting": "[12]", "value": "increased"}, {"measurement": "Bacterial genus Clostridium sensu stricto in gut microbiota", "setting": "[12]", "value": "decreased"}, {"measurement": "Glucose-lowering effects (previous studies)", "setting": "[13]", "value": "profound glucose-lowering effects"}]}]}
